Measurements as given in US20170189294A1, “Non-Irritating, Non-Whitening Photoprotective Compositions” (Eveready Battery Company, Inc., priority 2013, published 2017).

Experiments:
flame extension test = assay type: physicochemical; settings: propellant
Description: In one embodiment, the photoprotective composition concentrate and propellant are added to an aerosol container in a ratio of about 70:30 to about 60:40. The tetraflouroethane and difluoroethane propellants were tested and are non-flammable in view of the flame extension test.
In another embodiment, the photoprotective composition concentrate and propellant are added to an aerosol container in a ratio of about 70:30. The tetraflouroethane and isobutene propellants were evaluated to determine what blends of tetraflouroethane and isobutene propellants would provide a non-flammable product at a reasonable cost. […] In some embodiments having a photoprotective composition comprising a concentrate and at least one propellant, the ratio of the photoprotective composition and the propellant can be between about 2.5:1 and about 1.25:1.

[1] = solubility/compatibility and stability observations in the compositions; assay type: physicochemical; settings: three (3) months at 40° C.
From the text: With regard to the photoprotective compositions of the present disclosure, it was observed that high levels of isohexadecane, especially those of about 70 wt. %, limited the solubility and/or compatibility of other ingredients which cause undesirable characteristics within the entire photoprotective composition such as, i.e., hazing, oily segregation, and/or precipitation from the composition, and combinations thereof. […] Dimethicone with a viscosity of about 350 cst at a 1 wt. % concentration, for example, causes hazing.

Compound	flammability (flame extension test)	storage stability [1]
CC(F)F [difluoroethane, 1,1-difluoroethane]	non-flammable	–
COc1ccc(C(=O)CC(=O)c2ccc(C(C)(C)C)cc2)cc1 [avobenzone]	–	crystals appeared
FCC(F)(F)F [tetraflouroethane]	non-flammable	–
